Entries after “also recorded” stand apart in the source; their conditions may differ.
Columns and labels:
CypD PPIase = CypD PPIase (Homo sapiens, UniProt P30405); assay: CypD PPIase enzyme activity inhibition (real-time kinetics assay); assay type: biochemical; conditions: for Inhibition of CypD PPIase activity (in words): reaction progress curves, 0.39 to 50 uM (Compound 9: 0.19 to 100 uM), 25° C.
Experimental: The ability of CypD inhibitors to inhibit CypD PPIase enzyme activity was determined using a previously utilized “standard” procedure (Kofron, J. L.; Kuzmic, P.; Kishore, V.; Colon-Bonilla, E.; Rich, D. H., Determination of kinetic constants for peptidyl prolyl cis-trans isomerases by an improved spectrophotometric assay. Biochemistry 1991, 30, 6127-34). The results are presented in FIGS. 2A-2D and compared to CsA in FIG. 2E.
Linearity was maintained up to 5 minutes of incubation at 25° C. […] Linearity was maintained up to 5 minutes of incubation at 25° C. […] FIG. 10 show reaction progress curves collected for CypD activity in DMSO alone or at various Compound 6C concentrations ranging from 0.39 to 50 uM. Linearity was maintained up to 5 minutes of incubation at 25° C. […] FIG. 11 show reaction progress curves collected for CypD activity in DMSO alone or at various Compound 9 concentrations ranging from 0.19 to 100 uM. Linearity was maintained up to 5 minutes of incubation at 25° C.
Since inhibition of CypD PPIase activity was essential for potentiation of Aβ cytotoxicity, Aβ-induced cytotoxicity can presumably be decreased if the Aβ-CypD interaction is blocked with small-molecule inhibitors like Compound 9.

SK-N-SH cells [1] = assay: Cytochrome c oxidase (CcO) activity in Aβ1-42-treated cells; assay type: cell-based
Experimental: The effect of the CypD inhibitors on cytochrome c oxidase (CcO) was studied. The effect of the CypD inhibitors on Aβ-induced mitochondrial respiratory function was assessed by determining cytochrome c oxidase (CcO) activity. CcO is a vital enzyme associated with the mitochondrial electron transport chain. SK-N-SH cells were treated for 48 hours with 5 μM of oligomer Aβ1-42 in the presence of 10-20 μM of CypD inhibitor C-9, after which samples were tested for CcO enzyme activity levels.

[2] = Blood brain barrier penetration, LC-MS/MS of CSF, plasma and brain; assay type: in vivo; conditions: mice, 10 mg/kg dose i.v., CSF and brain 4 hours after administration
Experimental: Samples were collected 4 hours after i.v. administration of 10 mg/kg of Compound 6A in mice. […] Samples were collected 4 hours after i.v. administration of 10 mg/kg of Compound 6B in mice. […] Samples were collected 4 hours after i.v. administration of 10 mg/kg of Compound 6C in mice.
Additionally a selective and sensitive method for detecting the presence of four compounds (Compounds 6A, 6B, 6C & 9) as CypD inhibitors in mouse plasma, brain and artificial cerebrospinal fluid is based on high performance liquid chromatography tandem mass spectrometry. Mass spectra were generated using Micromass Quattro Ultima “triple” quadrupole mass spectrometer equipped with Electrospray ionization interface. The method used for pharmacokinetic studies of compounds in mouse cerebrospinal fluid, plasma, and brain is accurate, precise, and specific with no matrix effect.

[3] = molecular target: human recombinant CypD protein (Homo sapiens, UniProt P30405); assay: Surface plasmon resonance (SPR) binding to immobilized CypD; conditions: for Kd: 1:1 Langmuir binding fit, CypD immobilized on CM5 chip, read-out: KD (equilibrium dissociation constant); for Binding to CypD (in words): dose dependent
Chain of human recombinant CypD protein (P30405 30-207): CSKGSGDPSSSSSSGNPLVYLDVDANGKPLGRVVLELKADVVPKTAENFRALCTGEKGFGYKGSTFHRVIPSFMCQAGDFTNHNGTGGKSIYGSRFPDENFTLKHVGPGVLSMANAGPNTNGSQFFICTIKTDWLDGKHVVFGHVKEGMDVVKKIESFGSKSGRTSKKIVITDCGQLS
Experimental: In vitro SPR was used to verify the ability of the CypD inhibitors to bind to human recombinant CypD protein, which correlates with its potential CypD inhibitory activity.
Surface plasmon resonance (SPR) analysis of CypD-Pyrimidine derivative binding interaction, where the globally fit data (black lines) were overlaid with experimental data (greyish lines). Human recombinant CypD protein (10 μg/ml) was immobilized directly on the hydrophilic carboxy methylated dextran matrix of the CM5 sensor chip (Biacore-3000) using the standard primary amine coupling reaction according to standard procedures. Compound 9 (2.5, 5, 10, 15, 20 μM) was injected at a flow rate of 40 μl/min for the determination of the kinetic and equilibrium constants. All data analyses were carried out using BIA evaluation software, and sensor grams were processed by automatic correction for nonspecific bulk refractive index.
The equilibrium dissociation constant (KD) was determined using a 1:1 Langmuir binding fit model and the association (kon) and dissociation (koff) rate constants were determined using Equations (1) and (2). dR/dt=kon×C×(Rmax−R)−koff×R (1)
Where R represents the response unit, C is the concentration of the analyte, and KD=koff/kon (2)
The obtained results were evaluated by χ^2 analysis and the kinetic parameters for Compound 9 are provided.

cortical mitochondria = assay: Calcium-induced mitochondrial swelling assay; set-up: species or system mice; conditions: mouse cortical mitochondria treated with Ca2+, compound added dose-dependently
Description: Mitochondrial swelling in response to calcium was also studied. It is known that CypD-deficient cortical mitochondria are resistant to Aβ- and calcium (Ca^2+)-induced mitochondrial swelling and mitochondrial permeability transition. […] In order to determine the relationship between Ca^2+ and mitochondrial swelling, cortical mitochondria were isolated from mice and subjected to a swelling assay. Mitochondria treated with Ca^2+ experienced excessive swelling.
The fact that brain mitochondrial swelling was not affected by the inhibitors alone implies a symbiotic relationship between Ca^2+ and the inhibitor.

SK-N-SH cells [4] = assay: Cellular ATP levels in Aβ1-42-treated cells; assay type: cell-based; conditions: 48 hours
Experimental: The effect of the CypD inhibitors on the levels of adenosine-5′-triphosphate (ATP) was studied. To determine the effect of the CypD inhibitors on Aβ-induced energy metabolism impairment, cellular ATP levels were analyzed. SK-N-SH cells were exposed to 5 μM of Aβ1-42 in the presence of 10-20 μM of Compound 9. After 48 hours, we measured the ATP concentrations in the cell lysates.

SK-N-SH cells [5] = assay: MTT reduction cell viability assay (toxicity of inhibitor alone); assay type: cell-based; conditions: 0, 5, 10, 25, 50, and 100 μM in healthy SK-N-SH cells
Description: The effect of the CypD inhibitors on cell viability was studied. Excellent reversal effects of the CypD inhibitor on Aβ-affected processes were observed, including diminished mitochondrial swelling, and enhanced CcO activity and ATP production, assessment of the overall cell health of SK-N-SH cells treated with the CypD inhibitors were studied. A wide dosing range was utilized to examine the effect of the CypD inhibitors on cell viability using an MTT (3-(4,5-dimethylthiazol-2-yl)-2,5-diphenyltetrazolium_bromide) reduction assay (0, 5, 10, 25, 50, and 100 μM of inhibitor diluted in cell culture medium).

SK-N-SH cells [6] = assay: Aβ-induced neuronal cell death, MTT reduction assay; assay type: cell-based; conditions: 10 and 20 μM
Description: Assays examined the effect of the CypD inhibitor compounds on Aβ-induced neuronal cell death, commonly observed in AD. […] The addition of various dosages of inhibitor to the cells in the presence of Aβ1-42 increased cell viability. […] Thus, this evidence provides support that inhibition of CypD with specific inhibitors can provide a beneficial and powerful therapeutic tool in AD treatment.

Chain of CypD PPIase (P30405 30-207): as above

CCOC(=O)C1=C(C)N=C2SC=C(CCc3ccccc3)N2C1c1cccc([N+](=O)[O-])c1 (centres unmarked) [Compound 6A]
Inhibition of CypD PPIase activity (in words) (CypD PPIase): inhibits CypD activity; also recorded: effective in reducing CypD peptidyl prolyl isomerase enzyme activity
Aβ-induced mitochondrial dysfunction (cytochrome c oxidase and ATP levels) (SK-N-SH cells [1]): abolished Aβ-induced mitochondrial dysfunction
Blood-brain barrier penetration [2]: penetrate the blood-brain barrier

CCOC(=O)C1=C(C)N=C2SC=C(CCc3ccccc3)N2C1c1ccc(O)cc1 (centres unmarked) [Compound 6B]
Kd [3]: 0.248 µM
Binding to CypD (in words) [3]: high binding affinity
Inhibition of CypD PPIase activity (in words) (CypD PPIase): inhibits CypD activity; also recorded: effective in reducing CypD peptidyl prolyl isomerase enzyme activity
Aβ-induced mitochondrial dysfunction (cytochrome c oxidase and ATP levels) (SK-N-SH cells [1]): abolished Aβ-induced mitochondrial dysfunction
Blood-brain barrier penetration [2]: penetrate the blood-brain barrier

CCOC(=O)C1=C(C)N=C2SC=C(CCc3ccccc3)N2C1c1ccc(F)cc1 (centres unmarked) [Compound 6C]
Inhibition of CypD PPIase activity (in words) (CypD PPIase): inhibits CypD activity; also recorded: effective in reducing CypD peptidyl prolyl isomerase enzyme activity
Aβ-induced mitochondrial dysfunction (cytochrome c oxidase and ATP levels) (SK-N-SH cells [1]): abolished Aβ-induced mitochondrial dysfunction
Blood-brain barrier penetration [2]: penetrate the blood-brain barrier

Cc1nc(-c2ccc(OCC(C)C)c(C#N)c2)sc1C(=O)Nc1ccc(S(N)(=O)=O)cc1 [Compound 9]
Kd [3]: 0.149 µM
Binding to CypD (in words) [3]: high binding affinity
Inhibition of CypD PPIase activity (in words) (CypD PPIase): inhibits CypD activity; also recorded: effective in reducing CypD peptidyl prolyl isomerase enzyme activity
IC50 (CypD PPIase; real time fluorescence monitoring, read-out: IC50 inhibiting PPIase activity of CypD): 1.49 ± 0.2 µM
Calcium-induced mitochondrial swelling (cortical mitochondria): swelling was diminished
Aβ-induced mitochondrial dysfunction (cytochrome c oxidase and ATP levels) (SK-N-SH cells [1]): abolished Aβ-induced mitochondrial dysfunction
CcO activity in Aβ-treated cells (SK-N-SH cells [1]; 5 μM oligomer Aβ1-42, 10-20 μM inhibitor, 48 hours): rescued CcO activity
ATP levels in Aβ-treated cells (SK-N-SH cells [4]; 5 μM Aβ1-42, 10-20 μM compound, cell lysates): rescued ATP concentrations
ATP levels in cells exposed to inhibitor versus vehicle-treated cells without Aβ1-42 (SK-N-SH cells [4]; 10-20 μM compound): comparable to those of vehicle-treated cells
Cell viability (MTT reduction), inhibitor alone (SK-N-SH cells [5]): no significant effect
Cell viability in the presence of Aβ1-42 (MTT reduction) (SK-N-SH cells [6]): significant effect on cell health
Blood-brain barrier penetration [2]: penetrate the blood-brain barrier

— patent publication US9738615B2, “Cyclophilin D inhibitors” (The University of Kansas, priority 2014, dated 2017)
